Assay results: paper PMC8151276, “An Integrated Approach toward NanoBRET Tracers for Analysis of GPCR Ligand Engagement” (Molecules, 2021)

Molecular target: T1, NTSR1 (Homo sapiens, UniProt P30989)
T1 construct: purchased Promega (in-house HiBiT-GPCR construct library, NanoBRET)
Assay: NanoBRET screen HiBiT-NTSR1 in HEK293
Assay type: binding
Protocol: Each tracer candidate was screened across the entire library of HiBiT-GPCR constructs using NanoBRET as the detection modality. As depicted in Figure 4A, the specificity of interactions was evaluated through decrease in BRET due to competitive displacement of a bound tracer by excess parental compound. Each tracer was analyzed for binding to each HiBiT-GPCR fusion in the absence and in the presence of competing parental compound. Briefly, HEK293 cells were transfected with HiBiT-GPCR constructs diluted into promoterless DNA to reduce expression and maximize translocation to the cell surface. Each tracer candidate was then screened at concentrations of 1 μM and 0.1 μM across cells expressing these fusions. Cells were treated for 1.5 h with tracer either alone or in the presence of 20 μM competing parental compound (i.e., control). BRET was measured upon addition of purified LgBiT and subsequent complementation with HiBiT genetically fused to a GPCR. The specificity of interactions was assessed through a decrease in BRET signal due to competitive displacement of the bound tracer. To further gauge the robustness of these interactions, the fold response over the control (i.e., BRETtracer/BRETcontrol) was calculated. We chose a 1.5-fold response, which translates to ≥7-fold signal over noise as the minimal threshold required to score an interaction as positive. […]. Below we highlight the screening results obtained for our exemplary fluorescent tracers based on Clozapine, Amitriptyline and AZD1283.
HiBiT-GPCR DNA constructs were diluted in 10 mM Tris pH 8 to a final concentration of 0.01 μg/μL, arrayed in 96-well plates and stored at −20 °C. For transfection, HEK293 cells were suspended in Opti-MEM (without phenol red) supplemented with 2% fetal bovine serum (Seradigm) and 100 units/mL penicillin–streptomycin (Gibco) at a final concentration of 220,000 cells/mL and dispensed into white 96-well plates at 90 μL/well. Subsequent transfections and screens were carried using an Agilent Bravo Automated Liquid Handling Platform. First, the 96-well HiBiT DNA arrays were diluted 25-fold in Opti-MEM (without serum or phenol red) to a final concentration of 0.0004 μg/μL and 20 μL of the diluted DNAs were transferred into new 96-well plates. Next, promoterless carrier DNA (1 μg/μL) was diluted 25-fold (0.04 μg/μL) and then dispensed into the diluted arrays at 20 μL/well. Following brief mixing, Viafect transfection reagent (Promega) diluted 16-fold into Opti-MEM was dispensed into the plates at 40 μL/well. After mixing by pipetting, plates were incubated for 10 min on the pipetting station deck. The DNA-transfection reagent complexes were then added to plates containing cells. To facilitate the screen, 10 μL of DNA-transfection reagent complexes were added in duplicates to the top 4 and bottom 4 rows, resulting in two identical 48-well arrays per plate. Plates with transfected cells were incubated for 18–20 h at 37 °C/5% CO2. A screen of each tracer across the entire library using two different concentrations requires duplicate plates of transfected cells. Depending on the number of tracers being screened, transfections can be scaled up using the same ratios. The next day, for each tracer, four 20× screening solutions in tracer dilution buffer (Promega) were prepared: two duplicates at final concentration of 20 μM and two duplicates at a final concentration of 2 μM. A competing unmodified compound was added to one of each duplicate at a final concentration of 400 μM. The four resulting solutions were diluted 4-fold in Opti-MEM without serum or phenol red to generate 5× solutions (5 µM and 0.5 µM tracer +/− 100 μM competing compound). To screen the library, a BioTek MultiFlo FX liquid dispenser was used to dispense 22.5 µL of tracer solution to the top 4 rows and 22.5 µL tracer + competing compound solution to the 4 bottom rows. Plates were briefly mixed on an orbital shaker and incubated for 1.5 h at room temperature. […]

T1 sequence (P30989 whole entry): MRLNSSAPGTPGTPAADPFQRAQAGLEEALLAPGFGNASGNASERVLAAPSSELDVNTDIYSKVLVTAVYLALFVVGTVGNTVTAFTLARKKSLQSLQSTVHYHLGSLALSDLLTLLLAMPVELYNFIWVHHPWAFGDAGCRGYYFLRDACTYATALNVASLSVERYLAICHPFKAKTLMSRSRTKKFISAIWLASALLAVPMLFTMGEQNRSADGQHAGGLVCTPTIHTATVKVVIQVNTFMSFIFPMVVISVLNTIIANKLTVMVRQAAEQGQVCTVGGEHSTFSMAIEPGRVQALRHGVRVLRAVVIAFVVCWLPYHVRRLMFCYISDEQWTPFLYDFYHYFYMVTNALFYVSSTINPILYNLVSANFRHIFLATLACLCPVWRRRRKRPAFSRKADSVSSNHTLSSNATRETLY

SMILES | NanoBRET Fold Response (NTSR1, tracer 0.1μM) | NanoBRET Fold Response (NTSR1, tracer 1μM) | also measured
CN1CCN(C2=Nc3cc(Cl)ccc3Nc3ccc(CNC(=O)CCOCCOCCOCCOCCNC(=O)CCc4ccc5n4[B-](F)(F)[N+]4=C(c6ccc[nH]6)C=CC4=C5)cc32)CC1 [Clozapine-b-2-NB590] | – | – | NanoBRET Fold Response (NTSR1, 0.1μM tracer): 1.00; NanoBRET Fold Response (NTSR1, 1μM tracer): 1.01
CN(C)CCC=C1c2ccccc2CCc2ccc(C(=O)NCCNC(=O)CCOCCOCCOCCOCCNC(=O)CCc3ccc4n3[B-](F)(F)[N+]3=C(c5ccc[nH]5)C=CC3=C4)cc21 [Amitriptyline-b-2-NB590] | – | – | NanoBRET Fold Response (tracer at 0.1μM, listed as amitriptyline-b-2-NB590): 0.97; NanoBRET Fold Response (tracer at 1μM, listed as amitriptyline-b-2-NB590): 1.02
CCOC(=O)c1cc(C#N)c(N2CCC(C(=O)NS(=O)(=O)Cc3ccccc3/C=C/C(=O)NCCNC(=O)CCc3ccc4n3[B-](F)(F)[N+]3=C(c5ccc[nH]5)C=CC3=C4)CC2)nc1C [AZD1283-1-NB590] | – | – | NanoBRET Fold Response (NTSR1, 0.1μM): 1.04; NanoBRET Fold Response (NTSR1, 1μM): 1.07
CC(C)N(CC[C@H](c1ccccc1)c1cc(CCNC(=O)CCOCCOCCOCCOCCNC(=O)CCc2ccc3n2[B-](F)(F)[N+]2=C(c4ccc[nH]4)C=CC2=C3)ccc1O)C(C)C [Tolterodine-2-NB590] | 1.09 | 0.90 | –
CC(C)N(CC[C@H](c1ccccc1)c1cc(CCNC(=O)c2ccc(CNC(=O)CCc3ccc4n3[B-](F)(F)[N+]3=C(c5ccc[nH]5)C=CC3=C4)cc2)ccc1O)C(C)C [Tolterodine-BZ-NB590] | 1.02 | 1.03 | –
O=C(CCOCCOCCOCCOCCNC(=O)CCc1ccc2n1[B-](F)(F)[N+]1=C(c3ccc[nH]3)C=CC1=C2)NCCCN1CCN(C2=Nc3ccccc3Oc3ccc(Cl)cc32)CC1 [Loxapine-a-2-NB590] | 0.99 | 1.08 | –
CN1CCN(C2=Nc3cc(Cl)ccc3N(CC(=O)NCCOCCOCCOCCOCCNC(=O)CCc3ccc4n3[B-](F)(F)[N+]3=C(c5ccc[nH]5)C=CC3=C4)c3ccccc32)CC1 [Clozapine-c-2-NB590] | – | – | NanoBRET Fold Response (NTSR1, 0.1μM tracer): 1.02; NanoBRET Fold Response (NTSR1, 1μM tracer): 1.01
CN(C)CCC=C1c2ccccc2CCc2ccc(C(=O)NCCNC(=O)CCOCCOCCOCCOCCNC(=O)CCc3ccc4n3[B-](F)(F)[N+]3=C(c5ccc[nH]5)C=CC3=C4)cc21 [Amitriptyline-a-2-NB590] | – | – | NanoBRET Fold Response (tracer at 0.1μM): 1.05; NanoBRET Fold Response (tracer at 1μM): 1.00
Cc1nc2n(c(=O)c1CCN1CCC(c3noc4cc(F)ccc34)CC1)CCCC2OC(=O)NCCOCCOCCOCCOCCNC(=O)CCc1ccc2n1[B-](F)(F)[N+]1=C(c3ccc[nH]3)C=CC1=C2 (stereo not drawn) [Risperidone-2-NB590] | 1.00 | 0.98 | –
COc1ccc2[nH]c(-c3ccc(CNC(=O)CCOCCOCCOCCOCCNC(=O)CCc4ccc5n4[B-](F)(F)[N+]4=C(c6ccc[nH]6)C=CC4=C5)cc3)c(CCNC(C)=O)c2n1 [AzomelatoninICO9-2-NB590] | – | – | NanoBRET Fold Response (0.1μM tracer): 0.90; NanoBRET Fold Response (1μM tracer): 0.78
COc1ccccc1N1CCN(CCCCN2C(=O)c3ccc(CNC(=O)CCOCCOCCOCCOCCNC(=O)CCc4ccc5n4[B-](F)(F)[N+]4=C(c6ccc[nH]6)C=CC4=C5)cc3C2=O)CC1 [NAN-190-2-NB590] | 0.97 | – | –
O=C(CCc1ccc2n1[B-](F)(F)[N+]1=C(c3ccc[nH]3)C=CC1=C2)NCCOCCOCCNC(=O)OCCOCCN1CCN(C2=Nc3ccccc3Sc3ccccc32)CC1 [Quetiapine-a-2-NB590] | 1.03 | 0.89 | –
O=C(CCOCCOCCOCCOCCNC(=O)CCc1ccc2n1[B-](F)(F)[N+]1=C(c3ccc[nH]3)C=CC1=C2)NCCCN1CCN(C2=Nc3cc(Cl)ccc3Nc3ccccc32)CC1 [Clozapine-a-2-NB590] | – | – | NanoBRET Fold Response (NTSR1, 0.1μM tracer): 0.97; NanoBRET Fold Response (NTSR1, 1μM tracer): 1.00
N#CN=C(NCCCOc1cccc(CN2CCCCC2)c1)NCCNC(=O)CCOCCOCCOCCOCCNC(=O)CCc1ccc2n1[B-](F)(F)[N+]1=C(c3ccc[nH]3)C=CC1=C2 [Aminopotentidine-2-NB590] | 1.02 | 1.03 | –
O=C(CCc1ccc2n1[B-](F)(F)[N+]1=C(c3ccc[nH]3)C=CC1=C2)NCc1ccc(C(=O)NCCOCCOCCNCC(O)COc2cccc3ccccc23)cc1 (stereo not drawn) [Propranolol-3-NB590] | – | – | NanoBRET Fold Response (NTSR1, 0.1μM): 1.06; NanoBRET Fold Response (NTSR1, 1μM): 1.01
O=C(CCc1ccc2n1[B-](F)(F)[N+]1=C(c3ccc[nH]3)C=CC1=C2)NCc1ccc(C(=O)NCCOCCC(=O)N[C@@H]2CC[C@@]3(O)[C@H]4Cc5ccc(O)c6c5[C@@]3(CCN4CC3CC3)[C@H]2O6)cc1 [Naltrexone-3-NB590] | 1.07 | 0.93 | –
COc1ccccc1N1CCN(CCCCN2C(=O)c3ccc(CNC(=O)CCOCCNC(=O)c4ccc(CNC(=O)CCc5ccc6n5[B-](F)(F)[N+]5=C(c7ccc[nH]7)C=CC5=C6)cc4)cc3C2=O)CC1 [NAN-190-3-NB590] | 0.90 | 0.99 | –
Cc1cc2c(s1)Nc1ccccc1N=C2N1CCN(CCCNC(=O)CCOCCOCCOCCOCCNC(=O)CCc2ccc3n2[B-](F)(F)[N+]2=C(c4ccc[nH]4)C=CC2=C3)CC1 [Olanzapine-a-2-NB590] | 1.01 | 1.02 | –
CCCn1c(=O)c2[nH]c(-c3ccc(OCC(=O)NCCNC(=O)CCOCCNC(=O)c4ccc(CNC(=O)CCc5ccc6n5[B-](F)(F)[N+]5=C(c7ccc[nH]7)C=CC5=C6)cc4)cc3)nc2n(CCC)c1=O [XAC-3-NB590] | 0.98 | 1.02 | –
COc1ccc2c(n1)c(CCNC(C)=O)cn2CCNC(=O)CCc1ccc2n1[B-](F)(F)[N+]1=C(c3ccc[nH]3)C=CC1=C2 [Azamelatonin-1-NB590] | – | – | NanoBRET Fold Response (0.1μM tracer): 1.05; NanoBRET Fold Response (1μM tracer): 0.99
